Like-named read-outs stand apart in the source and are kept apart here.

This assay addresses T1, F508delCFTR (Homo sapiens, UniProt P13569, DEL508-508).
T1 construct: expressed in transfected cells; host or cells: CFBE41o- (human lung derived epithelial cell line), doxycycline-inducible expression
The assay is described as follows: Cell Surface Expression-Horse Radish Peroxidase (CSE-HRP) assay. In kind it is cell-based. Particulars: CFBE41o-F508delCFTR-HRP cells; for Maximum % activity (with co-corrector): with co-corrector (2 μM); for Maximum % activity (with co-corrector) / Maximum % activity (without co-corrector): normalized to on-plate positive control, highest concentration 20 μM. In a few lines:
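CFBE41o- cells expressed F508delCFTR with HRP in the fourth exofacial loop, induced by 0.5 μg/mL doxycycline for 72 h at 37 °C. Compounds alone or with 2 μM co-corrector ran 18–24 h at 33 °C, 8-point 3-fold from 20 μM. Washed-cell luminol luminescence was normalized to DMSO and positive control, fitted sigmoidally for EC50 (three plates).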

Where [1] appears, read: test compound without co-corrector, 18-24 hours at 33° C., read-out: EC50 (without co-corrector).
[2] abbreviates: with co-corrector (2 μM of 3-[(2R,4R)-4-({[1-(2,2-difluoro-1,3-benzodioxol-5-yl)cyclopropyl]carbonyl}amino)-7-methoxy-3,4-dihydro-2H-chromen-2-yl]benzoic acid), read-out: EC50 (with co-corrector).

T1 sequence (P13569 with tags, fused parts or gaps DEL508-508): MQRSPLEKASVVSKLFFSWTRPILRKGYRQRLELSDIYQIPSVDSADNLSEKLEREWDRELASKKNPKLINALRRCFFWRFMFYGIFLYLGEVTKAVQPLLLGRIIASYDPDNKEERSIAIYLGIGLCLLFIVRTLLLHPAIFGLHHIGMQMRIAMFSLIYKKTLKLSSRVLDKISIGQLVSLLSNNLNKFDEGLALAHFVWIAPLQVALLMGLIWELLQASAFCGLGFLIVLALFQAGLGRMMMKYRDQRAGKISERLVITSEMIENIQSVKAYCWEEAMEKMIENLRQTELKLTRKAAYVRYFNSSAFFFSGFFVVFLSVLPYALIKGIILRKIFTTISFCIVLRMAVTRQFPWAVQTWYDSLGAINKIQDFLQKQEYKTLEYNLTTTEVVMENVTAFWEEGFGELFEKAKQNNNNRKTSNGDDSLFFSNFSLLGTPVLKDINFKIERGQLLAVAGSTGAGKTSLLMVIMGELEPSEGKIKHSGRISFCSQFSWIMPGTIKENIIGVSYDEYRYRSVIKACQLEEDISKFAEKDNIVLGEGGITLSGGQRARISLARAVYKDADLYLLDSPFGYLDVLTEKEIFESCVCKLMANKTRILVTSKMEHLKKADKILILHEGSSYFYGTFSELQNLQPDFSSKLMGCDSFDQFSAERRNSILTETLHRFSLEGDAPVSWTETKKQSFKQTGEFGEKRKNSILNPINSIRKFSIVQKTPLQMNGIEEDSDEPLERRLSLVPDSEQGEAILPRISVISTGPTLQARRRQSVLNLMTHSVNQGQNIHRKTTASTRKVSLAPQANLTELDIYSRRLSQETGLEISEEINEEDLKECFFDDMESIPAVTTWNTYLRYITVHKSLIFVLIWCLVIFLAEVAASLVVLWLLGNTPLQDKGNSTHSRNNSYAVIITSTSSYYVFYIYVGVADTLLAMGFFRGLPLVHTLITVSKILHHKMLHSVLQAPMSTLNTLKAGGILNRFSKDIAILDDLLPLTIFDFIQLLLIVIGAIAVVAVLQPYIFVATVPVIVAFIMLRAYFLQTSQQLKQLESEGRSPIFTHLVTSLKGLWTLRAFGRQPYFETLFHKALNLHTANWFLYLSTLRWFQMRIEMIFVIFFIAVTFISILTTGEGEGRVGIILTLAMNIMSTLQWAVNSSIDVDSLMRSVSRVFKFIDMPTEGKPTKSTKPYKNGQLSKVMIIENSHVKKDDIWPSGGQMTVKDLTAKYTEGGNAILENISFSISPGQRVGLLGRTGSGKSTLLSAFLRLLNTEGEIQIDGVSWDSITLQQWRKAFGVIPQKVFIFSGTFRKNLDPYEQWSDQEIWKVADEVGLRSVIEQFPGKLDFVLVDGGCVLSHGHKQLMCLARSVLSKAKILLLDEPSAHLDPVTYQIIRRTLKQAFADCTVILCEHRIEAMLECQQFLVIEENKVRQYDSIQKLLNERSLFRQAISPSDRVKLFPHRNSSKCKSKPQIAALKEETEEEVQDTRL

For `COc1ncc(C2CCC2)cc1CO[C@H]1[C@H](C(C)(C)C)[C@@H](C(=O)O)N(C(=O)[C@@H]2CCCO2)[C@H]1c1ccccc1C1CC1` [Example 149, (2S,3R,4S,5S)-3-tert-butyl-4-[(5-cyclobutyl-2-methoxypyridin-3-yl)methoxy]-5-(2-cyclopropylphenyl)-1-[(2S)-oxolane-2-carbonyl]pyrrolidine-2-carboxylic acid], the “Maximum % activity (with co-corrector)” value is “+++ (≥350)”; the “Maximum % activity (without co-corrector)” value is “++ (≥100 and <200)”. Besides, the 50% effective concentration (EC50) under setting [1] was 1 to 10 µM. In addition, the EC50 under setting [2] is below 1 µM.

As for `COc1ncc(C2CCC2)cc1CO[C@H]1[C@H](C(C)(C)C)[C@@H](C(=O)O)N(C(=O)C2CCOCC2)[C@H]1c1ccccc1C1CC1` [Example 150, (2S,3R,4S,5S)-3-tert-butyl-4-[(5-cyclobutyl-2-methoxypyridin-3-yl)methoxy]-5-(2-cyclopropylphenyl)-1-(oxane-4-carbonyl)pyrrolidine-2-carboxylic acid], the “Maximum % activity (with co-corrector)” value is on record as “+++ (≥350)”; the “Maximum % activity (without co-corrector)” value was “++ (≥100 and <200)”. Moreover, under setting [1], the EC50 lay in the range of 1 to 10 µM. For the same compound, under setting [2], the EC50 is below 1 µM.

For the compound `COc1nc2ccccc2cc1CO[C@H]1[C@H](C(C)(C)C)[C@@H](C(=O)O)N(C(=O)[C@@H]2CCCO2)[C@H]1c1ccccc1Br` [Example 151, (2S,3R,4S,5S)-5-(2-bromophenyl)-3-tert-butyl-4-[(2-methoxyquinolin-3-yl)methoxy]-1-[(2S)-oxolane-2-carbonyl]pyrrolidine-2-carboxylic acid], the “Maximum % activity (with co-corrector)” value is “++ (≥150 and <350)”; the “Maximum % activity (without co-corrector)” value is on record as “+ (<100)”. The concentration for a half-maximal effect (EC50) under setting [1] is below 1 µM. Besides, the concentration giving a half-maximal response (EC50) under setting [2] is below 1 µM.

Regarding `CCOC(=O)N1[C@H](C(=O)O)[C@@H](C(C)(C)C)[C@H](OCc2cc(C(F)(F)F)cnc2OC)[C@@H]1c1cccc(C(C)(C)C)c1` [Example 152, (2S,3R,4S,5S)-3-tert-butyl-5-(3-tert-butylphenyl)-1-(ethoxycarbonyl)-4-{[2-methoxy-5-(trifluoromethyl)pyridin-3-yl]methoxy}pyrrolidine-2-carboxylic acid], the “Maximum % activity (with co-corrector)” value is “++ (≥150 and <350)”; the “Maximum % activity (without co-corrector)” value is reported as “+ (<100)”. In addition, the EC50 under setting [1] is below 1 µM. Besides, the EC50 under setting [2] lay within 1 to 10 µM.

For the compound `COc1ncc(C(F)(F)F)cc1CO[C@H]1[C@H](C(C)(C)C)[C@@H](C(=O)O)N(C(=O)OC(C)C)[C@H]1c1cccc(C(C)(C)C)c1` [Example 153, (2S,3R,4S,5S)-3-tert-butyl-5-(3-tert-butylphenyl)-4-{[2-methoxy-5-(trifluoromethyl)pyridin-3-yl]methoxy}-1-{[(propan-2-yl)oxy]carbonyl}pyrrolidine-2-carboxylic acid], the “Maximum % activity (with co-corrector)” value was “++ (≥150 and <350)”; the “Maximum % activity (without co-corrector)” value is recorded as “+ (<100)”. Besides, under setting [1], the EC50 was below 1 µM. For the same compound, the EC50 under setting [2] was below 1 µM.

Consider `COc1ncc(C(F)(F)F)cc1CO[C@H]1[C@H](C(C)(C)C)[C@@H](C(=O)O)N(C(=O)[C@H]2C[C@@H]3CC[C@H]2O3)[C@H]1c1cccc(C(C)(C)C)c1` [Example 154, (2S,3R,4S,5S)-3-tert-butyl-5-(3-tert-butylphenyl)-4-{[2-methoxy-5-(trifluoromethyl)pyridin-3-yl]methoxy}-1-[(1R,2S,4S)-7-oxabicyclo[2.2.1]heptane-2-carbonyl]pyrrolidine-2-carboxylic acid], for which the “Maximum % activity (with co-corrector)” value was “++ (≥150 and <350)”; the “Maximum % activity (without co-corrector)” value is reported as “+ (<100)”. Under setting [1], the EC50 was below 1 µM. Also, under setting [2], the EC50 was below 1 µM.

Turning to `COc1ncc(C2CCC2)cc1CO[C@H]1[C@H](C(C)(C)C)[C@@H](C(=O)O)N(C(=O)[C@@H]2CCCO2)[C@H]1c1ccccc1C(F)(F)F` [Example 155, (2S,3R,4S,5S)-3-tert-butyl-4-[(5-cyclobutyl-2-methoxypyridin-3-yl)methoxy]-1-[(2S)-oxolane-2-carbonyl]-5-[2-(trifluoromethyl)phenyl]pyrrolidine-2-carboxylic acid], the “Maximum % activity (with co-corrector)” value is recorded as “+++ (≥350)”; the “Maximum % activity (without co-corrector)” value is “++ (≥100 and <200)”. Also, the EC50 under setting [1] lay within 1 to 10 µM. Moreover, the concentration for a half-maximal effect (EC50) under setting [2] was below 1 µM.

With `COc1ncc(C(F)(F)F)cc1CO[C@H]1[C@H](C(C)(C)C)[C@@H](C(=O)O)N(C(=O)[C@@H]2CCCO2)[C@H]1c1ccccc1C(F)(F)F` [Example 156, (2S,3R,4S,5S)-3-tert-butyl-4-{[2-methoxy-5-(trifluoromethyl)pyridin-3-yl]methoxy}-1-[(2S)-oxolane-2-carbonyl]-5-[2-(trifluoromethyl)phenyl]pyrrolidine-2-carboxylic acid], the “Maximum % activity (with co-corrector)” value is reported as “+++ (≥350)”; the “Maximum % activity (without co-corrector)” value was “++ (≥100 and <200)”. For the same compound, the EC50 under setting [1] was 1 to 10 µM. In addition, the EC50 under setting [2] was below 1 µM.

Turning to `COc1ncc(C(F)(F)F)cc1CO[C@H]1[C@H](C(C)(C)C)[C@@H](C(=O)O)N(C(=O)[C@@H]2CCCCO2)[C@H]1c1cccc(C(C)(C)C)c1` [Example 158, (2S,3R,4S,5S)-3-tert-butyl-5-(3-tert-butylphenyl)-4-{[2-methoxy-5-(trifluoromethyl)pyridin-3-yl]methoxy}-1-[(2S)-oxane-2-carbonyl]pyrrolidine-2-carboxylic acid], the “Maximum % activity (with co-corrector)” value is given as “+++ (≥350)”; the “Maximum % activity (without co-corrector)” value was “++ (≥100 and <200)”. Under setting [1], the EC50 is below 1 µM. Besides, under setting [2], the EC50 was below 1 µM.

On to `COc1ncc(C(F)(F)F)cc1CO[C@H]1[C@H](C(C)(C)C)[C@@H](C(=O)O)N(C(=O)[C@@H]2CCCO2)[C@H]1c1ccccc1Br` [Example 159, (2S,3R,4S,5S)-5-(2-bromophenyl)-3-tert-butyl-4-{[2-methoxy-5-(trifluoromethyl)pyridin-3-yl]methoxy}-1-[(2S)-oxolane-2-carbonyl]pyrrolidine-2-carboxylic acid], for which the “Maximum % activity (with co-corrector)” value was “+++ (≥350)” and the “Maximum % activity (without co-corrector)” value is given as “+ (<100)”. Moreover, the EC50 under setting [1] is below 1 µM. Also, the EC50 under setting [2] was below 1 µM.

With `COc1ncc(C(F)(F)F)cc1CO[C@H]1[C@H](C(C)(C)C)[C@@H](C(=O)O)N(C(=O)C2CCC2)[C@H]1c1cccnc1OC(C)C` [Example 160, (2S,3R,4S,5S)-3-tert-butyl-1-(cyclobutanecarbonyl)-4-{[2-methoxy-5-(trifluoromethyl)pyridin-3-yl]methoxy}-5-{2-[(propan-2-yl)oxy]pyridin-3-yl}pyrrolidine-2-carboxylic acid], the “Maximum % activity (with co-corrector)” value is “++ (≥150 and <350)”; the “Maximum % activity (without co-corrector)” value is “+ (<100)”. Besides, the EC50 under setting [1] was in the range of 1 to 10 µM. Also, the EC50 under setting [2] is 1 to 10 µM.

On to `COc1ncc(C2CCC2)cc1CO[C@H]1[C@H](C(C)(C)C)[C@@H](C(=O)O)N(C(=O)C2CCC2)[C@H]1c1cccnc1OC(C)C` [Example 161, (2S,3R,4S,5S)-3-tert-butyl-1-(cyclobutanecarbonyl)-4-[(5-cyclobutyl-2-methoxypyridin-3-yl)methoxy]-5-{2-[(propan-2-yl)oxy]pyridin-3-yl}pyrrolidine-2-carboxylic acid], for which the “Maximum % activity (with co-corrector)” value was “+++ (≥350)” and the “Maximum % activity (without co-corrector)” value is “+ (<100)”. The concentration for a half-maximal effect (EC50) under setting [1] is 1 to 10 µM. For the same compound, under setting [2], the EC50 is 1 to 10 µM.

The values above are taken from US10399940B2, “Substituted pyrrolidines and methods of use” (AbbVie S.à.r.l., priority 2016, dated 2019).
